Measured values: patent US11046714B2, “2,2-difluorodioxolo A2A receptor antagonists” (Merck Sharp & Dohme Corp., priority 2013, dated 2021)

These compounds were tested against human A2A receptor (Homo sapiens (Human), UniProt P29274) (assay: competition binding assay using Scintillation Proximity technology). Settings: membranes from CHO-K1 cells expressing the human A2a receptor; 2.0 nM tritiated compound; Cheng-Prusoff.
human A2A receptor, sequence (P29274 whole entry): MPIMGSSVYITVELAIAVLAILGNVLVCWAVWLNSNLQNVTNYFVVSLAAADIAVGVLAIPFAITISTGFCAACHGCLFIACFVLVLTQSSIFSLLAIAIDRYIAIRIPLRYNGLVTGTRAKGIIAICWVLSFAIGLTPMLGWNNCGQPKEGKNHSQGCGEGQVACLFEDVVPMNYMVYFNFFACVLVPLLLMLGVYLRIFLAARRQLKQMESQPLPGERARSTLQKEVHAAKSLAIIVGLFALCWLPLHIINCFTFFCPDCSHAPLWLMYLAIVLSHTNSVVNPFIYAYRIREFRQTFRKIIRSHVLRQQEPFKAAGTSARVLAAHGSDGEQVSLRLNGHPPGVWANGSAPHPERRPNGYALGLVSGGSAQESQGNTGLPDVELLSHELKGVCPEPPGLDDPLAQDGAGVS
Summary of the method: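 Membranes (1.0 μg) from CHO-K1 cells expressing human A2A were treated with adenosine deaminase, then incubated 1 h at room temperature with compound (3000–0.15 nM) and 2.0 nM tritiated SCH-type ligand on WGA SPA beads in PBS plus 10 mM MgCl2. Nonspecific binding was defined with 1 μM CGS 15943. Ki was derived from EC50 via Cheng-Prusoff.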
Compound C[C@H](Cc1nc2c3ccc4c(c3nc(N)n2n1)OC(F)(F)O4)N1CCc2nc(C3CC3)oc2C1 [Example 81, 8-[(2R)-2-(2-cyclopropyl-6,7-dihydro [1,3]oxazolo[5,4-c]pyridin-5(4H)-yl)propyl]-2,2-difluoro[1,3] dioxolo[4,5-h][1,2,4]triazolo[1,5-c]quinazolin-5-amine] has a Ki of 2.4 nM. With Cc1nc2c(s1)CCN([C@H](C)Cc1nc3c4ccc5c(c4nc(N)n3n1)OC(F)(F)O5)C2 [Example 82, 2,2-difluoro-8-[(2R)-2-(2-methyl-6,7-dihydro[1,3]thiazolo[4,5-c]pyridin-5(4H)-yl)propyl][1,3] dioxolo[4,5-h][1,2,4]triazolo [1,5-c]quinazolin-5-amine] the Ki was 1.5 nM. Work on Cc1cc2n(n1)CCN([C@H](C)Cc1nc3c4ccc5c(c4nc(N)n3n1)OC(F)(F)O5)C2 [Example 83, 2,2-difluoro-8-[(2R)-2-(2-methyl-6,7-dihydropyrazolo[1,5-a]pyrazin-5(4H)-yl)propyl][1,3]dioxolo[4,5-h] [1,2,4]triazolo[1,5-c]quinazolin-5-amine] yielded a Ki of 3.8 nM. Work on C[C@H](Cc1nc2c3ccc4c(c3nc(N)n2n1)OC(F)(F)O4)N1CC(C)(F)C1 [Example 84, 2,2-difluoro-8-[(2R)-2-(3-fluoro-3-methylazetidin-1-yl)propyl][1,3] dioxolo[4,5-h][1,2,4]triazolo[1,5-c]quinazolin-5-amine] yielded a Ki of 4.9 nM. In the case of C[C@@H](Cc1nc2c3ccc4c(c3nc(N)n2n1)OC(F)(F)O4)N1Cc2ccncc2C1 [Example 87, (S)-8-(2-(1H-pyrrolo[3,4-c]pyridin-2(3H)-yl)propyl)-2,2-difluoro-[1,3]dioxolo[4,5-h][1,2,4]triazolo[1,5-c]quinazolin-5-amine], the Ki is reported as 7.7 nM. C[C@@H](Cc1nc2c3ccc4c(c3nc(N)n2n1)OC(F)(F)O4)N1CC(C)(F)C1 [Example 88, 2,2-difluoro-8-[(2S)-2-(3-fluoro-3-methylazetidin-1-yl)propyl][1,3] dioxolo[4,5-h][1,2,4]triazolo [1,5-c]quinazolin-5-amine] gave a Ki of 4.8 nM. With Nc1nc2c3c(ccc2c2nc(CCn4cccn4)nn12)OC(F)(F)O3 [Example 99, 8-(2-(1H-pyrazol-1-yl)ethyl)-2,2-difluoro-[1,3]dioxolo[4,5-h][1,2,4]triazolo[1,5-c]quinazolin-5-amine] the Ki was 2.7 nM. In the case of CC(C)(Cc1nc2c3ccc4c(c3nc(N)n2n1)OC(F)(F)O4)N1CC(F)C1 [Example 101, 2,2-difluoro-8-(2-(3-fluoroazetidin-1-yl)-2-methylpropyl)-[1,3]dioxolo[4,5-h][1,2,4]triazolo[1,5-c]quinazolin-5-amine], the Ki is reported as 31 nM. Nc1nc2c3c(ccc2c2nc(CN4CCN(c5ccc(F)cc5)CC45CC5)nn12)OC(F)(F)O3 [Example 102, 2,2-difluoro-8-((7-(4-fluorophenyl)-4,7-diazaspiro[2.5]octan-4-yl)methyl)-[1,3]dioxolo[4,5-h][1,2,4]triazolo[1,5-c]quinazolin-5-amine] was tested, and the Ki was 3.5 nM. In the case of Nc1nc2c3c(ccc2c2nc(CN4CCN(c5ccc(F)cn5)CC45CC5)nn12)OC(F)(F)O3 [Example 103, 2,2-difluoro-8-{[7-(5-fluoropyridin-2-yl)-4,7-diazaspiro[2.5]oct-4-yl]methyl}[1,3]dioxolo[4,5-h][1,2,4] triazolo[1,5-c]quinazolin-5-amine], the Ki is reported as 3.4 nM. With Nc1nc2c3c(ccc2c2nc(CN4CCN(c5cccc(F)c5)CC45CC5)nn12)OC(F)(F)O3 [Example 104, 2,2-difluoro-8-{[7-(3-fluorophenyl)-4,7-diazaspiro[2.5]oct-4-yl]methyl} [1,3]dioxolo[4,5-h][1,2,4]triazolo [1,5-c]quinazolin-5-amine] the Ki was 8.7 nM. COCCOc1ccc(N2CCN(Cc3nc4c5ccc6c(c5nc(N)n4n3)OC(F)(F)O6)C3(CC3)C2)cc1 [Example 105, 2,2-difluoro-8-({7-[4-(2-methoxyethoxy)phenyl]-4,7-diazaspiro[2.5]oct-4-yl}methyl) [1,3]dioxolo[4,5-h][1,2,4]triazolo [1,5-c]quinazolin-5-amine] was tested, and the Ki was 3.7 nM.
